± gives the uncertainty stated by the source. Values belong to the molecule of their own block, whether it stands above or below them.
Assay: xn = mol fraction of the nth substance listed

SMILES: CCCC[n+]1ccn(C)c1.F[P-](F)(F)(F)(F)F + OC[C@H]1O[C@H](O[C@H]2[C@H](O)[C@@H](O)C(O)O[C@@H]2CO)[C@H](O)[C@@H](O)[C@@H]1O + O
viscosity (293.15 K, 100 kPa, x1 = 0.0001838, x2 = 0): 1.011 ± 0.041 mPa·s
viscosity (293.15 K, 100 kPa, x1 = 0.0005385, x2 = 0): 1.025 ± 0.042 mPa·s
viscosity (293.15 K, 100 kPa, x1 = 0.0008966, x2 = 0): 1.038 ± 0.043 mPa·s
viscosity (293.15 K, 100 kPa, x1 = 0.001262, x2 = 0): 1.041 ± 0.043 mPa·s
viscosity (298.15 K, 100 kPa, x1 = 0.0001838, x2 = 0): 0.905 ± 0.037 mPa·s
viscosity (298.15 K, 100 kPa, x1 = 0.0005385, x2 = 0): 0.916 ± 0.038 mPa·s
viscosity (298.15 K, 100 kPa, x1 = 0.0008966, x2 = 0): 0.922 ± 0.038 mPa·s
viscosity (298.15 K, 100 kPa, x1 = 0.001262, x2 = 0): 0.932 ± 0.038 mPa·s
viscosity (303.15 K, 100 kPa, x1 = 0.0001838, x2 = 0): 0.821 ± 0.034 mPa·s
viscosity (303.15 K, 100 kPa, x1 = 0.0005385, x2 = 0): 0.826 ± 0.034 mPa·s
viscosity (303.15 K, 100 kPa, x1 = 0.0008966, x2 = 0): 0.83 ± 0.034 mPa·s
viscosity (303.15 K, 100 kPa, x1 = 0.001262, x2 = 0): 0.843 ± 0.035 mPa·s
viscosity (308.15 K, 100 kPa, x1 = 0.0001838, x2 = 0): 0.742 ± 0.03 mPa·s
viscosity (308.15 K, 100 kPa, x1 = 0.0005385, x2 = 0): 0.744 ± 0.031 mPa·s
viscosity (308.15 K, 100 kPa, x1 = 0.0008966, x2 = 0): 0.75 ± 0.031 mPa·s
viscosity (308.15 K, 100 kPa, x1 = 0.001262, x2 = 0): 0.761 ± 0.031 mPa·s
viscosity (313.15 K, 100 kPa, x1 = 0.0001838, x2 = 0): 0.661 ± 0.027 mPa·s
viscosity (313.15 K, 100 kPa, x1 = 0.0005385, x2 = 0): 0.674 ± 0.028 mPa·s
viscosity (313.15 K, 100 kPa, x1 = 0.0008966, x2 = 0): 0.677 ± 0.028 mPa·s
viscosity (313.15 K, 100 kPa, x1 = 0.001262, x2 = 0): 0.683 ± 0.028 mPa·s

SMILES: CCCC[n+]1ccn(C)c1.F[P-](F)(F)(F)(F)F + CC(C)=O
electrical conductivity (296.15 K, 101 kPa, x2 = 0): 0.15 ± 0.02 S/m
electrical conductivity (296.15 K, 101 kPa, x2 = 0.9195): 3.84 ± 0.38 S/m
electrical conductivity (298.15 K, 101 kPa, x2 = 0.4972): 1.28 ± 0.15 S/m
viscosity (298.15 K, 101 kPa, x2 = 0.4972): 14.7 ± 1.6 mPa·s
electrical conductivity (298.15 K, 101 kPa, x2 = 0.7839): 2.86 ± 0.34 S/m
viscosity (298.15 K, 101 kPa, x2 = 0.7839): 2.05 ± 0.28 mPa·s
viscosity (298.15 K, 101.3 kPa, x2 = 0.4485): 18.46 ± 0.49 mPa·s
viscosity (298.15 K, 101.3 kPa, x2 = 0.6007): 6.96 ± 0.17 mPa·s
viscosity (298.15 K, 101.3 kPa, x2 = 0.8058): 1.648 ± 0.042 mPa·s

viscosity (298.15 K, 100 kPa, x1 = 0.1299): 139 ± 9 mPa·s
viscosity (323.15 K, 100 kPa, x1 = 0.7943): 264 ± 19 mPa·s
SMILES: CC(CC(C)(C)C)CP(=O)([O-])CC(C)CC(C)(C)C.CCCCCCCCCCCCCC[P+](CCCCCC)(CCCCCC)CCCCCC + O

viscosity (298.15 K, 100 kPa, x1 = 0.33): 320 ± 26 mPa·s
viscosity (303.15 K, 100 kPa, x1 = 0.33): 232 ± 16 mPa·s
viscosity (308.15 K, 100 kPa, x1 = 0.33): 168 ± 9 mPa·s
viscosity (313.15 K, 100 kPa, x1 = 0.33): 127 ± 5 mPa·s
viscosity (318.15 K, 100 kPa, x1 = 0.33): 99 ± 3 mPa·s
viscosity (323.15 K, 100 kPa, x1 = 0.33): 78 ± 2 mPa·s
SMILES: CC[n+]1ccn(C)c1.O=S(=O)([O-])O + OCC(O)CO

SMILES: CCCC[n+]1ccn(C)c1.O=S(=O)([N-]S(=O)(=O)C(F)(F)F)C(F)(F)F + CCCCCO
viscosity (298 K, 100 kPa, x1 = 1): 49.7 ± 1.3 mPa·s

SMILES: C[N+]1(CCOCCOCCOCCOCC[N+]2(C)CCCC2)CCCC1.O=S(=O)([N-]S(=O)(=O)C(F)(F)F)C(F)(F)F.O=S(=O)([N-]S(=O)(=O)C(F)(F)F)C(F)(F)F + CC[n+]1ccn(C)c1.N#C[N-]C#N + O=S(=O)([N-]S(=O)(=O)C(F)(F)F)C(F)(F)F.[Li+]
electrical conductivity (298 K, 100 kPa, x1 = 0.1429, x2 = 0.7537): 0.47 ± 0.019 S/m
electrical conductivity (303 K, 100 kPa, x1 = 0.1429, x2 = 0.7537): 0.56 ± 0.022 S/m
electrical conductivity (313 K, 100 kPa, x1 = 0.1429, x2 = 0.7537): 0.77 ± 0.031 S/m
electrical conductivity (323 K, 100 kPa, x1 = 0.1429, x2 = 0.7537): 1.08 ± 0.043 S/m
electrical conductivity (333 K, 100 kPa, x1 = 0.1429, x2 = 0.7537): 1.34 ± 0.053 S/m
electrical conductivity (343 K, 100 kPa, x1 = 0.1429, x2 = 0.7537): 1.63 ± 0.065 S/m

viscosity (293.15 K, 100 kPa, x1 = 0.3321): 27.12 ± 0.71 mPa·s
viscosity (293.15 K, 100 kPa, x1 = 0.4272): 67.1 ± 1.8 mPa·s
viscosity (293.15 K, 100 kPa, x1 = 0.9362): 625 ± 55 mPa·s
viscosity (298.15 K, 100 kPa, x1 = 1): 521 ± 43 mPa·s
viscosity (303.15 K, 100 kPa, x1 = 0.0765): 2.239 ± 0.064 mPa·s
viscosity (303.15 K, 100 kPa, x1 = 0.8837): 287 ± 18 mPa·s
viscosity (308.15 K, 100 kPa, x1 = 0.6717): 99.2 ± 3.4 mPa·s
viscosity (313.15 K, 100 kPa, x1 = 0.0474): 1.983 ± 0.051 mPa·s
viscosity (313.15 K, 100 kPa, x1 = 1): 217 ± 12 mPa·s
viscosity (318.15 K, 100 kPa, x1 = 0.2582): 8.21 ± 0.19 mPa·s
viscosity (318.15 K, 100 kPa, x1 = 0.3321): 12.45 ± 0.3 mPa·s
viscosity (323.15 K, 100 kPa, x1 = 0.1508): 3.946 ± 0.088 mPa·s
viscosity (323.15 K, 100 kPa, x1 = 0.8837): 112.5 ± 4.4 mPa·s
SMILES: CCCC[P+](C)(CCCC)CCCC.COS(=O)(=O)[O-] + CN(C)C=O

SMILES: CCCC[n+]1ccn(C)c1.F[P-](F)(F)(F)(F)F + CC(=O)c1ccccc1
viscosity (313.15 K, 100 kPa, x2 = 0): 97 ± 19 mPa·s

SMILES: CCOC(C)=O + CC[n+]1ccn(C)c1.O=S(=O)([N-]S(=O)(=O)C(F)(F)F)C(F)(F)F
viscosity (303.15 K, 100 kPa, x1 = 1): 0.39 mPa·s

viscosity (298.15 K, 100 kPa, x1 = 0.004192): 1.135 ± 0.024 mPa·s
SMILES: CCCC[P+](C)(CCCC)CCCC.COS(=O)(=O)[O-] + O

SMILES: CCCC[n+]1ccn(C)c1.O=S(=O)([N-]S(=O)(=O)C(F)(F)F)C(F)(F)F + CC(=O)[O-].CCCC[NH2+]CCO
viscosity (278.15 K, 101 kPa, x2 = 0): 145.6 ± 2.3 mPa·s
viscosity (288.15 K, 101 kPa, x2 = 0): 83.44 ± 0.91 mPa·s
viscosity (293.15 K, 101 kPa, x2 = 0): 65.11 ± 0.61 mPa·s
viscosity (318.15 K, 101 kPa, x2 = 0): 24.05 ± 0.22 mPa·s
